ChEMBL document CHEMBL4052640 (Eur J Med Chem, 2017)

Legend:
Coxsackievirus B4 [1] = format: functional; details: Enterovirus B, Vero
Influenza B virus = test: microbe, parasite or virus in culture; details: B/Ned/537/05, MDCK
Yellow fever virus = test: microbe, parasite or virus in culture; details: Vero
Sindbis virus = format: functional; details: Vero
Human respirovirus 3 = test: microbe, parasite or virus in culture; details: Human respirovirus 3, Vero
cells [2] = details: Influenza A virus, MDCK
MDCK = test: Cytotoxicity against dog MDCK cells assessed as reduction in cell viability measured after 5 to 6 days by MTS assay; format: cell-based, Canis lupus familiaris
Influenza A virus [3] = format: functional, cell-based; details: A/Ned/378/05(H1N1), MDCK
cells [4] = details: MDCK
[5] = system: Respiratory syncytial virus; format: functional, cell-based; details: human respiratory syncytial virus, HeLa
[6] = system: Vesicular stomatitis virus; test: microbe, parasite or virus in culture; details: HeLa
[7] = system: Mammalian orthoreovirus 1; format: functional; details: Mammalian orthoreovirus 1, Vero
Coxsackievirus B4 [8] = format: functional, cell-based; details: Enterovirus B, HeLa
Influenza A virus [9] = format: functional, cell-based; details: A/Ned/378/05(H1N1), MDCK; remark: listed apart in the source
Punta Toro virus = format: functional; details: Vero
cells [10] = details: Influenza A virus, MDCK; remark: listed apart in the source

Row | SMILES | EC50 (Coxsackievirus B4 [1]) [µM] | EC50 (Influenza B virus) [µM] | EC50 (Yellow fever virus) [µM] | EC50 (Sindbis virus) [µM] | EC50 (Human respirovirus 3) [µM] | EC50 (cells [2]) [µM] | CC50 (MDCK) [µM] | EC50 (Influenza A virus [3]) [µM] | EC50 (cells [4]) [µM] | EC50 [5] [µM] | EC50 [6] [µM] | EC50 [7] [µM] | EC50 (Coxsackievirus B4 [8]) [µM] | EC50 (Influenza A virus [9]) [µM] | EC50 (Punta Toro virus) [µM] | EC50 (cells [10]) [µM]
1 | CC1(C)N=C(N)N=C(N)N1c1ccccc1Cl | > 100 | 56 | > 100 | > 100 | > 100 | 34 | > 100 | > 100 | 19 | 48 | > 100 | > 100 | > 100 | > 100 | > 100 | > 83
2 | COc1ccc(N2C(N)=NC(N)=NC2(C)C)cc1 | > 100 |  | > 100 | > 100 | > 100 |  | > 100 |  |  |  | > 100 | > 100 | > 100 |  | > 100 | 
3 | CC1(C)N=C(N)N=C(N)N1c1cccc(F)c1 | > 100 | 1.7 | > 100 | > 100 | > 100 | > 100 | > 100 |  | 0.2 | 0.01 | > 100 | 9.5 | > 100 |  | > 100 | 21
4 | CC1(C)N=C(N)N=C(N)N1c1cccc(Br)c1 | > 100 |  | > 100 | > 100 | > 100 | > 100 | 29 |  |  |  | > 100 |  | > 100 |  | > 100 | > 100
5 | CC1(C)N=C(N)N=C(N)N1c1cc(C(F)(F)F)cc(C(F)(F)F)c1 | > 100 | 1.8 | > 100 | > 100 | > 100 | > 100 | > 100 |  | 0.8 | 0.27 | > 100 | > 100 | > 100 |  | > 100 | 36
6 | CC1(C)N=C(N)N=C(N)N1c1ccc(Cl)cc1Cl | > 100 | > 100 | > 100 | > 100 | > 100 | ≥ 83 | > 100 | > 100 | > 100 | > 100 | > 100 | > 100 | > 100 | > 100 | > 100 | > 83
7 | CC1(C)N=C(N)N=C(N)N1c1ccc(C(=O)O)cc1 | > 100 | > 100 | > 100 | > 100 | > 100 | > 83 | > 100 | > 100 | > 100 | > 100 | > 100 | > 100 | > 100 | > 100 | > 100 | > 83
8 | CC(C)C1(C)N=C(N)N=C(N)N1c1ccc(Cl)cc1 (stereo unspecified) | > 100 | 2.8 | > 100 | > 100 | > 100 | 33 | > 100 | 45 | 1 | 0.8 | > 100 | > 100 | > 100 | 68 | > 100 | 24
9 | NC1=NC2(CCCC2)N(c2cccc(C(F)(F)F)c2)C(N)=N1 | > 100 | 1.6 | > 100 | > 100 | > 100 | > 100 | > 100 |  | 0.33 | 0.2 | > 100 | > 100 | > 100 |  | > 100 | > 100
10 | NC1=NC2(CCCC2)N(c2cccc(Cl)c2)C(N)=N1 | > 100 | 4.5 | > 100 | > 100 | > 100 | > 100 | > 100 |  | 0.4 | 0.22 | > 100 | > 100 | > 100 |  | > 100 | 49
11 | NC1=NC2(CCCCC2)N(c2cccc(C(F)(F)F)c2)C(N)=N1 | > 100 |  | > 100 | > 100 | > 100 | > 100 | > 100 |  |  |  | > 100 | > 100 | > 100 |  | > 100 | > 100
12 | CC1(C)N=C(N)N=C(N)N1c1ccc([N+](=O)[O-])cc1 | > 100 | 35 | > 100 | > 100 | > 100 | > 83 | > 100 | > 100 | 7.8 | 27 | > 100 | > 100 | > 100 | > 100 | > 100 | > 83
13 | CCC1(C)N=C(N)N=C(N)N1c1ccc(Cl)cc1 (stereo unspecified) | > 100 | 8.3 | > 100 | > 100 | > 100 | > 83 | > 100 | > 100 | 2.2 | 5.4 | > 100 | > 100 | > 100 | > 100 | > 100 | > 83
14 | NC1=NC2(CCCCC2)N(c2cccc(Cl)c2)C(N)=N1 | > 100 | 10 | > 100 | > 100 | > 100 | > 100 | > 100 |  | 3 |  | > 100 | > 100 | > 100 |  | > 100 | > 100
15 | CCOC(=O)c1ccc(N2C(N)=NC(N)=NC2(C)C)cc1 | > 100 | > 100 | > 100 | > 100 | > 100 | > 83 | > 100 | > 100 | > 100 | > 100 | > 100 | > 100 | > 100 | > 100 | > 100 | > 83
16 | CC1(C)N=C(N)N=C(N)N1c1ccc(Br)cc1 | > 100 | 2.9 | > 100 | > 100 | > 100 | 39 | 53 | 21 | 1 | 0.16 | > 100 | > 100 | > 100 | 7.3 | > 100 | 19
17 | CC1(C)N=C(N)N=C(N)N1c1ccccc1 | > 100 |  | > 100 | > 100 | > 100 |  | > 100 |  |  |  | > 100 | > 100 | > 100 |  | > 100 | 
18 | Cc1ccc(N2C(N)=NC(N)=NC2(C)C)cc1 | > 100 | 11 | > 100 | > 100 | > 100 | 53 | > 100 | 48 | 1.2 |  | > 100 | > 100 | > 100 | 34 | > 100 | 34
19 | CC1(C)N=C(N)N=C(N)N1c1ccc(F)cc1 | > 100 |  | > 100 | > 100 | > 100 |  | > 100 |  |  |  | > 100 | > 100 | > 100 |  | > 100 | 
20 | CC1(C)N=C(N)N=C(N)N1c1cccc(Cl)c1 | > 100 |  | > 100 | > 100 | > 100 |  | 1.4 |  |  |  | > 100 |  | > 100 |  | > 100 | 
21 | NC12CC3CC(CC(C3)C1)C2 [AMANTADINE] |  | > 400 |  |  |  | 124 | > 400 | 2.3 | > 400 |  |  |  |  | 2.2 |  | 211
22 | CC1(C)N=C(N)N=C(N)N1c1ccc(Cl)cc1 [CYCLOGUANIL] | > 100 |  | > 100 | > 100 | > 100 |  | 52 |  |  |  | > 100 | > 100 | > 100 |  | > 100 | 
23 | COc1c(C)c2c(c(O)c1C/C=C(\C)CCC(=O)O)C(=O)OC2 [MYCOPHENOLIC ACID] | > 100 |  | 2.3 | 1.4 | 0.4 |  |  |  |  |  |  |  |  |  |  | 
24 | CCc1nc(N)nc(N)c1-c1ccc(Cl)cc1 [PYRIMETHAMINE] |  |  | > 100 |  |  | > 83 | 41 |  |  |  | > 100 |  | > 100 |  | > 100 | > 83
25 | NC(=O)c1ncn([C@@H]2O[C@H](CO)[C@@H](O)[C@H]2O)n1 [RIBAVIRIN] | > 250 |  | > 250 | > 250 |  |  |  | 10 |  | 5.8 |  | > 250 |  | 7.6 | 29 | 
26 | CC(N)C12CC3CC(CC(C3)C1)C2 (stereo unspecified) [RIMANTADINE] |  | > 400 |  |  |  |  | > 400 |  | > 400 |  |  |  |  |  |  | 
27 | CC(=O)N[C@H]1[C@H]([C@H](O)[C@H](O)CO)OC(C(=O)O)=C[C@@H]1N=C(N)N [ZANAMIVIR] |  | 0.06 |  |  |  | 2.3 | > 100 |  | 0.055 |  |  |  |  |  |  | 6.8
